In PMC6220303 (EMBO Molecular Medicine, 2018):
Several values for one entry are separate records, joined by “and”; a condition that tells them apart may be missing. Equal entries are not always repeated. Entries after “also recorded” stand apart in the source; their conditions may differ. Where two headings read alike, the source gives them in different places.

Key:
CSF Aβ = test: Human CSF Aβ after 2-week once-daily dosing; assay type: in vivo; settings: 2 weeks, 24 h after last dose, mean ± SEM
Method: (A) Changes in Aβ40 relative to baseline values. (B) Changes in sAPPβ relative to baseline values.
CSF was sampled by single lumbar punctures at baseline and 24 h after the last dose, and the change in Aβ concentrations from baseline to end of treatment was determined.
Human CSF was collected from an indwelling spinal catheter inserted into the lower spinal canal (in the single ascending dose (SAD) PD first in human (FIH) study) or by a lumbar puncture (in the multiple ascending dose (MAD) PD Phase I study and Phase IIa study), and by trained personnel at the site and as per their standard operating procedure (SOP). CSF Aβ38, Aβ40, Aβ42, sAPPα, and sAPPβ were quantified in human CSF with 0.2% (v/v) Tween®‐20 using validated sandwich‐based multiplexed electrochemiluminescence methods (MesoScale Discovery, […], MD, USA).

[1] = system: healthy participants ≥ 60 years; test: Adverse events after single dose (Appendix Table S5); assay type: in vivo, human
Description: For further details, see the Appendix Table S10 in Appendix and the accompanying clinical protocols synopsis (Appendix Table S11).
Appendix Table S3. Overview of completed clinical studies with CNP520
Study description Population No. of Participants Dose/Frequency […]
First-in-human, randomized, 18-55 yrs 38 / 14 Single dose (10, 30, 90, […]
controlled, single and multiple CNP520 vs placebo) ascending oral dose study to Single dose (10, 90, 300,

[2] = Shelf life of the clinical capsule form; assay type: physicochemical; settings: kept refrigerated
[3] = Animal toxicology studies, any species; assay type: in vivo
Method: In vivo animal toxicity studies were performed according to ICH guidance for industry M3(R2) and conformed to the Institutional Animal Care and Use Guidelines for the contract laboratory and sponsor. […] Recovery was assessed after a 12‐week treatment‐free period. Beagle dogs from Marshall BKU UK, 11 months of age, were given 0 (vehicle), 5, 15, or 30 mg/kg/day for 39 weeks. Vehicle consisted of 0.5% (w/v) methylcellulose (1,500 cPS) in 0.1% (v/v) polysorbate 80 (Tween®‐80) in reverse osmosis water. At necropsy, tissues were immersion fixed in 10% neutral‐buffered formalin or modified Davidson's solution and then processed by routine methods to paraffin block and hematoxylin–eosin (H&E)‐stained histologic slides.

[4] = assay type: in vivo; settings: rat, 15.4 mg/kg oral
[5] = system: CHO cells (wild‐type APP); test: Cellular Aβ40 release assay; assay type: cell-based; settings: Cricetulus griseus, inhibition of Aβ40 release, six batches, each in triplicate
Method: (§1) Cellular Aβ release assays were done in CHO cells stably transfected with human wild‐type and human APP were done as described (Neumann et al, 2015). Determinations of logD, pKa, and binding to brain homogenates were done internally at Novartis, Basel. Plasma protein binding was determined by equilibrium dialysis using diluted plasma from the corresponding species. MDR‐1‐MDCK cells were obtained from Prof. A. Berns, Netherlands Cancer Institute, Amsterdam NL, and bi‐directional transport measurements were done as described (Rueeger et al, 2011). Receptor binding assays were done against an internal receptor panel and externally at Ricerca Biosciences, Peitou, Taiwan. In vitro binding and cellular patch clamp assays for hERG were done at Preclinical Safety, Novartis, Basel.

[6] = system: CHO cells (“Swedish” APP); test: Cellular Aβ40 release assay; assay type: cell-based; settings: Cricetulus griseus, inhibition of Aβ40 release, three batches, triplicates
Method: as §1

pKa determination = assay type: physicochemical; settings: cyclic amidine
Method: as §1

logD determination = assay type: physicochemical; settings: partition coefficient octanol/buffer pH 6.8
Method: as §1

Ghrelin receptor (GHS) = Ghrelin receptor (GHS) (Homo sapiens, UniProt Q92847); test: Receptor panel binding; settings: read-out: Inhibition at 10 µM
Method: as §1

clinical = assay type: in vivo, human; settings: for CSF Cmax: ≥ 60 years
Method: The lower limit of quantification (LLOQ) was 1 ng/ml in plasma and 2 ng/ml in urine and CSF, except for the 3‐month study where the method for CSF was more sensitive (LLOQ 0.1 ng/ml). Plasma PK parameters were calculated using actual recorded sampling times and non‐compartmental methods with Phoenix WinNonlin version 6.4 (Certara, Inc., Princeton, NJ, USA). […]

[7] = molecular target: Monoamine transporter VMAT2 (Oryctolagus cuniculus, UniProt G1T2K3); test: Receptor panel binding; set-up: species or system Rabbit; settings: read-out: Inhibition at 10 µM
Method: as §1

Ghrelin receptor (GHS), sequence (Q92847 whole entry): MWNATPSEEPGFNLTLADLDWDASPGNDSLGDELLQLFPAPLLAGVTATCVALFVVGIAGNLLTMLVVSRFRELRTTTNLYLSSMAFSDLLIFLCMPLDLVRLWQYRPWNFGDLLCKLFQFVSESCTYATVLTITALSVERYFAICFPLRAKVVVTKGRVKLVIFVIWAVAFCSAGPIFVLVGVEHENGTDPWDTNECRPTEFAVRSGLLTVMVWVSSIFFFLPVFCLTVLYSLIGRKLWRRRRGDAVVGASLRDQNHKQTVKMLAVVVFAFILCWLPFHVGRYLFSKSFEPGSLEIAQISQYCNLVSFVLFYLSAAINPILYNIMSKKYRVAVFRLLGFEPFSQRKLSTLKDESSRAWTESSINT
Monoamine transporter VMAT2, sequence (G1T2K3 1-509): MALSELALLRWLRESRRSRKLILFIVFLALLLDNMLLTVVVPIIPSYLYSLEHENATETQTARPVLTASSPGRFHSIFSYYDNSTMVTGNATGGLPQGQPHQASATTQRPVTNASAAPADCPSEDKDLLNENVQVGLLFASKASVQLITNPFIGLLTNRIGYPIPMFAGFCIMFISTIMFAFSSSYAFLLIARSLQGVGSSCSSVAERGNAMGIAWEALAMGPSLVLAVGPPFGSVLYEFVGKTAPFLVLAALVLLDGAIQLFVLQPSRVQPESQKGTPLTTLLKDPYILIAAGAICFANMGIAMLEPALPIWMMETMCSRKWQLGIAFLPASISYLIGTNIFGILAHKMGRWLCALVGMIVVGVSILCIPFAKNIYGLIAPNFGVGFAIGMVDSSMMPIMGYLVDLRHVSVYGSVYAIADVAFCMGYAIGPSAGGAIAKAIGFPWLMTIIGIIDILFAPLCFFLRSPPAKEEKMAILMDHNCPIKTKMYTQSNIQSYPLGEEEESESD

## C[C@@]1(c2nc(NC(=O)c3ncc(C(F)(F)F)cc3Cl)ccc2F)CO[C@@](C)(C(F)(F)F)C(N)=N1 [CNP520]
CSF Aβ; 10 mg daily dose
  Aβ reduction in CSF from baseline to end of treatment: 59.8 ± 9.88%
CSF Aβ; 300 mg daily dose
  Aβ reduction in CSF from baseline to end of treatment: 93.9 ± 2.09%
[1]; single dose 10 mg, N = 6
  AE incidence: Ear and labyrinth disorders: 0 (0.0) n (%)
  AE incidence: Eye disorders: 0 (0.0) n (%)
  AE incidence: Gastrointestinal disorders: 1 (16.7) n (%)
  AE incidence: General disorders and administration site conditions: 1 (16.7) n (%)
  AE incidence: Infections and infestations: 0 (0.0) n (%)
  AE incidence: Injury, poisoning and procedural complications: 0 (0.0) n (%)
  AE incidence: Metabolism and nutrition disorders: 1 (16.7) n (%)
  AE incidence: Nervous system disorders: 2 (33.3) n (%)
  AE incidence: Psychiatric disorders: 0 (0.0) n (%)
  AE incidence: Respiratory, thoracic and mediastinal disorders: 0 (0.0) n (%)
  AE incidence: Vascular disorders: 0 (0.0) n (%)
  Participants with at least one AE: 5 (83.3) n (%)
[1]; single dose 90 mg, N = 6
  AE incidence: Ear and labyrinth disorders: 0 (0.0) n (%)
  AE incidence: Eye disorders: 1 (16.7) n (%)
  AE incidence: Gastrointestinal disorders: 0 (0.0) n (%)
  AE incidence: General disorders and administration site conditions: 0 (0.0) n (%)
  AE incidence: Infections and infestations: 0 (0.0) n (%)
  AE incidence: Injury, poisoning and procedural complications: 0 (0.0) n (%)
  AE incidence: Metabolism and nutrition disorders: 0 (0.0) n (%)
  AE incidence: Nervous system disorders: 1 (16.7) n (%)
  AE incidence: Psychiatric disorders: 1 (16.7) n (%)
  AE incidence: Respiratory, thoracic and mediastinal disorders: 0 (0.0) n (%)
  AE incidence: Vascular disorders: 1 (16.7) n (%)
  Participants with at least one AE: 3 (50.0) n (%)
[1]; single dose 300 mg, N = 8
  AE incidence: Ear and labyrinth disorders: 1 (12.5) n (%)
  AE incidence: Eye disorders: 0 (0.0) n (%)
  AE incidence: Gastrointestinal disorders: 0 (0.0) n (%)
  AE incidence: General disorders and administration site conditions: 0 (0.0) n (%)
  AE incidence: Infections and infestations: 0 (0.0) n (%)
  AE incidence: Injury, poisoning and procedural complications: 0 (0.0) n (%)
  AE incidence: Metabolism and nutrition disorders: 0 (0.0) n (%)
  AE incidence: Nervous system disorders: 2 (25.0) n (%)
  AE incidence: Psychiatric disorders: 0 (0.0) n (%)
  AE incidence: Respiratory, thoracic and mediastinal disorders: 0 (0.0) n (%)
  AE incidence: Vascular disorders: 0 (0.0) n (%)
  Participants with at least one AE: 6 (75.0) n (%)
[1]; single dose 750 mg, N = 9
  AE incidence: Ear and labyrinth disorders: 0 (0.0) n (%)
  AE incidence: Eye disorders: 0 (0.0) n (%)
  AE incidence: Gastrointestinal disorders: 2 (22.2) n (%)
  AE incidence: General disorders and administration site conditions: 1 (11.1) n (%)
  AE incidence: Infections and infestations: 0 (0.0) n (%)
  AE incidence: Injury, poisoning and procedural complications: 3 (33.3) n (%)
  AE incidence: Metabolism and nutrition disorders: 0 (0.0) n (%)
  AE incidence: Nervous system disorders: 3 (33.3) n (%)
  AE incidence: Psychiatric disorders: 0 (0.0) n (%)
  AE incidence: Respiratory, thoracic and mediastinal disorders: 0 (0.0) n (%)
  AE incidence: Vascular disorders: 0 (0.0) n (%)
  Participants with at least one AE: 8 (88.9) n (%)
[2]
  shelf life of the capsule form: 24 months
[3]; any species
  morphological changes in CNS, peripheral nervous system, liver, endocrine pancreas, retina, skin: No morphological changes were identified
[3]; including 9 months dosing in dogs
  depigmentation in long-term animal toxicology studies: no signs of depigmentation; also recorded: did not result in hair depigmentation
[3]; long-term toxicological studies in rats and dogs
  retinal degeneration: no retinal degeneration
[4]
  peak concentration of unbound CNP520 in the brain: 50 nM
[5]
  IC50: 2.8 ± 0.2 nM
[6]
  IC50: 44 ± 0.4 nM
pKa determination
  pKa: 7.2
logD determination
  logD: 3.5
Ghrelin receptor (GHS)
  inhibition at 10 µM: 79%
clinical; 10 mg q.d., 2 weeks, LLOQ 2 ng/ml in CSF
  CSF conc 24h after dose Day 14: < LLOQ
clinical; both sexes, human, CSF, oral, 2 mg q.d., 3 month study, mean (CV %), read-out: CSF conc 24h after dose Day 91
  concentration at 24 h: 0.305 ng/mL
clinical; both sexes, human, CSF, oral, 10 mg q.d., 3 month study, mean (CV %), read-out: CSF conc 24h after dose Day 91
  concentration at 24 h: 1.44 ng/mL
clinical; both sexes, human, CSF, oral, 30 mg q.d., 2 weeks, mean (CV %), read-out: CSF conc 24h after dose Day 14
  concentration at 24 h: 3.33 ng/mL
clinical; both sexes, human, CSF, oral, 35 mg q.d., 3 month study, mean (CV %), read-out: CSF conc 24h after dose Day 91
  concentration at 24 h: 4.52 ng/mL
clinical; both sexes, human, CSF, oral, 85 mg q.d., 3 month study, mean (CV %), read-out: CSF conc 24h after dose Day 91
  concentration at 24 h: 10.4 ng/mL
clinical; both sexes, human, CSF, oral, 90 mg q.d., 2 weeks, mean (CV %), read-out: CSF conc 24h after dose Day 14
  concentration at 24 h: 9.48 ng/mL
clinical; both sexes, human, CSF, oral, 300 mg q.d., 2 weeks, mean (CV %), read-out: CSF conc 24h after dose Day 14
  concentration at 24 h: 29.8 ng/mL
clinical; both sexes, human, CSF, oral, single dose of 750 mg, read-out: CSF mean C max
  Cmax: 39.7 nM
clinical; single dose 10 mg, LLOQ 2 ng/ml in CSF
  CSF Cmax: < LLOQ
clinical; single dose 90 mg, mean (CV %)
  CSF Cmax: 3.33 ( 65.2 ) ng/ml
clinical; single dose 300 mg, mean (CV %)
  CSF Cmax: 10.5 (49.1) ng/ml
clinical; single dose 750 mg, mean (CV %)
  CSF Cmax: 20.4 (44.8) ng/ml and 20.4 ng/ml
[7]
  inhibition at 10 µM: 79%
